From BindingDB's records for doi:10.1021/acs.jmedchem.8b00642 (Korea Institute of Science and Technology, 2018) come the findings set out here.

For the assay, the target named is 5-hydroxytryptamine receptor 7 (Homo sapiens, UniProt P34969). The experiment in a line: Displacement of [3H]LSD from human 5-HT7 receptor expressed in HEK cell membranes after 1.5 hrs by microbeta scintillation counting method. In general terms: In a radioligand displacement assay an active substance lowers the binding of a labelled ligand.
5-hydroxytryptamine receptor 7, sequence (P34969 whole entry): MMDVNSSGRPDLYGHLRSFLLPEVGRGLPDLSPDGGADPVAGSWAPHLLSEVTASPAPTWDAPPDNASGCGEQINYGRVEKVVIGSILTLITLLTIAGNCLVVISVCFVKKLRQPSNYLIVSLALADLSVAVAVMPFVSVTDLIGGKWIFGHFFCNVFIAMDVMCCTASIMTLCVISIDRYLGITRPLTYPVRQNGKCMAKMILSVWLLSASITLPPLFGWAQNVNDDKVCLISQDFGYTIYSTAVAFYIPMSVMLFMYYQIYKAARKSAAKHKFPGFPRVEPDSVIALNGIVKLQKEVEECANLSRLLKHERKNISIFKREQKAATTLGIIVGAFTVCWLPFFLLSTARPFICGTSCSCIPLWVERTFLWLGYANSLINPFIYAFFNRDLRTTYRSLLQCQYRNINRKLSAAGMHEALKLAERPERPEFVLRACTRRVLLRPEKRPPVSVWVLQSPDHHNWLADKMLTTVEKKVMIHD

A word on the Ki: it is the dissociation constant of the complex between target and ligand, obtained from inhibition or displacement. Lower therefore signals higher affinity. For the compound `Clc1ccc(-c2n[nH]c3c2CCNCC3)cc1`, affinity was put at a Ki of 32 nM.
